These results are taken from PubChem BioAssay AID248 (DTP/NCI, 2004).

The test system of the assay is L1210 leukemia ip in BDF1 mice, survival T/C. Kind of assay: NCI In Vivo Anticancer Drug Screen. Data for tumor model L1210 Leukemia (intraperitoneal) in B6D2F1 (BDF1) mice. Conditions: higher = longer survival. In short, it runs like this:
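Survival endpoint. Drug-treated group vs vehicle group, expressed as T divided by C. Tumor passaged by transplantation.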

Where [1] appears, read: endpoint: mean survival time, dose: 100.0 mg/kg/injection, schedule: Q01DX001 (ip), vehicle: Klucel (hydroxypropylcellulose) (HPC).
Where [2] appears, read: endpoint: mean survival time, dose: 100.0 mg/kg/injection, schedule: Q01DX001 (ip), vehicle: saline with Tween-80.
The mark [3] stands for this setting: endpoint: mean survival time, dose: 200.0 mg/kg/injection, schedule: Q01DX001 (ip), vehicle: saline with Tween-80.
The mark [4] stands for this setting: endpoint: mean survival time, dose: 400.0 mg/kg/injection, schedule: Q01DX001 (ip), vehicle: saline with Tween-80.
Setting [5] is: endpoint: mean survival time, dose: 100.0 mg/kg/injection, schedule: Q01DX009 (ip), vehicle: saline with Tween-80.
Where [6] appears, read: endpoint: mean survival time, dose: 200.0 mg/kg/injection, schedule: Q01DX009 (ip), vehicle: saline with Tween-80.
Where [7] appears, read: endpoint: mean survival time, dose: 100.0 mg/kg/injection, schedule: Q01DX001 (ip), vehicle: saline.
The mark [8] stands for this setting: endpoint: mean survival time, dose: 200.0 mg/kg/injection, schedule: Q01DX001 (ip), vehicle: saline.
Setting [9] is: endpoint: mean survival time, dose: 50.0 mg/kg/injection, schedule: Q01DX009 (ip), vehicle: saline with Tween-80.
Where [10] appears, read: endpoint: mean survival time, dose: 50.0 mg/kg/injection, schedule: Q04DX002 (ip), vehicle: Klucel (hydroxypropylcellulose) (HPC).
Where [11] appears, read: endpoint: mean survival time, dose: 100.0 mg/kg/injection, schedule: Q04DX002 (ip), vehicle: Klucel (hydroxypropylcellulose) (HPC).
The mark [12] stands for this setting: endpoint: mean survival time, dose: 200.0 mg/kg/injection, schedule: Q04DX002 (ip), vehicle: Klucel (hydroxypropylcellulose) (HPC).
The mark [13] stands for this setting: endpoint: mean survival time, dose: 100.0 mg/kg/injection, schedule: Q01DX009 (ip), vehicle: Klucel (hydroxypropylcellulose) (HPC).
The mark [14] stands for this setting: endpoint: mean survival time, dose: 200.0 mg/kg/injection, schedule: Q01DX009 (ip), vehicle: Klucel (hydroxypropylcellulose) (HPC).
Setting [15] is: endpoint: mean survival time, dose: 400.0 mg/kg/injection, schedule: Q01DX009 (ip), vehicle: Klucel (hydroxypropylcellulose) (HPC).

Where “and” joins values, the source holds several entries; their conditions need not be identical. Equal values may be shown once. Toxic doses and inconclusive results are not listed.

With `Nc1nc(SCc2ccccc2)nc2nc[nH]c12`, the T/C was 91 % of control (endpoint: mean survival time, dose: 50.0 mg/kg/injection, schedule: Q01DX001 (ip), vehicle: Klucel (hydroxypropylcellulose) (HPC)); 95 % of control under setting [1]; 93 % of control (endpoint: mean survival time, dose: 200.0 mg/kg/injection, schedule: Q01DX001 (ip), vehicle: Klucel (hydroxypropylcellulose) (HPC)).

Regarding `O=C1CCCCCC/C(=N/O)CCCO1`, the T/C reads like this: under setting [2], 94 % of control; under setting [3], 97 % of control; under setting [4], 97 % of control.

`CCOc1ccc(/C=N/NC(=O)c2ccc(O)c(OC)c2)cc1OC`: the T/C is 103 % of control under setting [5]; 92 % of control under setting [6]; 96 % of control (endpoint: mean survival time, dose: 400.0 mg/kg/injection, schedule: Q01DX009 (ip), vehicle: saline with Tween-80).

With `CNC(=S)n1cnc(N)n1`, the T/C reads like this: (endpoint: mean survival time, dose: 50.0 mg/kg/injection, schedule: Q01DX001 (ip), vehicle: saline) 107 % of control; under setting [7], 101 % of control; under setting [8], 107 % of control.

On to `CCCCCC/C=N/NC(=O)c1ccc[n+](C)c1`, for which the T/C by setting is: under setting [9], 93 % of control; under setting [5], 100 % of control; under setting [6], 100 % of control.

For the compound `Cc1c(/C=N\Nc2ccccc2)[nH]c(=O)[nH]c1=O`, the T/C reads like this: under setting [7], 92 % of control; under setting [8], 92 % of control; (endpoint: mean survival time, dose: 400.0 mg/kg/injection, schedule: Q01DX001 (ip), vehicle: saline) 86 % of control.

In the case of `[CH3][Sb]([CH3])([CH3])([O]C(=O)CF)[O]C(=O)CF`, the T/C is 91 % of control (endpoint: mean survival time, dose: 1.25 mg/kg/injection, schedule: Q04DX003 (ip), vehicle: saline with Tween-80); 96 % of control (endpoint: mean survival time, dose: 2.5 mg/kg/injection, schedule: Q04DX003 (ip), vehicle: saline with Tween-80); 110 % of control (endpoint: mean survival time, dose: 5.0 mg/kg/injection, schedule: Q04DX003 (ip), vehicle: saline with Tween-80); 107 % of control (endpoint: mean survival time, dose: 5.0 mg/kg/injection, schedule: Q04DX003 (ip), vehicle: saline).

As to `[Ni+2].[SH2+]C([SH2+])=Nc1ccccc1.[SH2+]C([SH2+])=Nc1ccccc1.c1ccc(C[P+](c2ccccc2)(c2ccccc2)c2ccccc2)cc1`, the T/C (endpoint: mean survival time, dose: 6.0 mg/kg/injection, schedule: Q01DX009 (ip), vehicle: saline) is 94 % of control.

For `CC(=O)c1cc2cc(Cl)cc(Cl)c2oc1=O`, the T/C was 94 % of control under setting [5]; 95 % of control (endpoint: mean survival time, dose: 100.0 mg/kg/injection, schedule: Q04DX002 (ip), vehicle: saline with Tween-80); 91 % of control under setting [6]; 100 % of control (endpoint: mean survival time, dose: 200.0 mg/kg/injection, schedule: Q04DX002 (ip), vehicle: saline with Tween-80); 92 % of control (endpoint: mean survival time, dose: 400.0 mg/kg/injection, schedule: Q04DX002 (ip), vehicle: saline with Tween-80).

Consider `CCN(CC)Cc1cc(Nc2cc(OC)cc3cccnc23)ccc1O`, for which the T/C is, setting by setting: (endpoint: mean survival time, dose: 10.0 mg/kg/injection, schedule: Q01DX001 (ip), vehicle: saline) 111 % of control; (endpoint: mean survival time, dose: 19.0 mg/kg/injection, schedule: Q01DX001 (ip), vehicle: saline) 110 % of control; (endpoint: mean survival time, dose: 38.0 mg/kg/injection, schedule: Q01DX001 (ip), vehicle: saline) 100 % of control.

For the compound `O=C(O)C(=O)c1ccccc1NC(=O)c1ccc(Cl)cc1`, the T/C runs as follows: under setting [10], 101 % of control; under setting [11], 93 % of control; under setting [12], 93 % of control.

On to `Cc1c([N+](=O)[O-])oc2ccc(Cl)cc12`, for which the T/C under setting [10] was 93 % of control; the T/C under setting [13] is 100 % of control; the T/C under setting [11] is 87 % of control; the T/C under setting [14] was 91 % of control; the T/C under setting [12] is 93 % of control; the T/C under setting [15] is 95 % of control.

Regarding `CC12CCC3C(CCC4=CC(=O)C(C(O)(C(F)(F)F)C(F)(F)F)CC43C)C1CC(C(O)(C(F)(F)F)C(F)(F)F)C2=O` (stereo unspecified), the T/C by setting is: (endpoint: mean survival time, dose: 100.0 mg/kg/injection, schedule: Q01DX001 (sc), vehicle: steriod suspending solution) 97 % of control; (endpoint: mean survival time, dose: 200.0 mg/kg/injection, schedule: Q01DX001 (sc), vehicle: steriod suspending solution) 103 % of control; (endpoint: mean survival time, dose: 400.0 mg/kg/injection, schedule: Q01DX001 (sc), vehicle: steriod suspending solution) 101 % of control.

Turning to `Cc1nc2nc(N)nc(N)c2nc1CN(C)c1ccc(C(=O)NC(CCC(=O)O)C(=O)O)cc1` (stereo unspecified), the T/C runs as follows: (endpoint: median survival time, dose: 0.39 mg/kg/injection, schedule: Q01DX009 (ip), vehicle: other) 100 % of control; (endpoint: median survival time, dose: 0.65 mg/kg/injection, schedule: Q01DX009 (ip), vehicle: other) 100 % of control; (endpoint: median survival time, dose: 1.08 mg/kg/injection, schedule: Q01DX009 (ip), vehicle: other) 100 % of control; (endpoint: median survival time, dose: 1.8 mg/kg/injection, schedule: Q01DX009 (ip), vehicle: other) 100 % of control and 90 % of control; (endpoint: median survival time, dose: 5.0 mg/kg/injection, schedule: Q01DX009 (ip), vehicle: other) 90 % of control; (endpoint: median survival time, dose: 14.0 mg/kg/injection, schedule: Q01DX009 (ip), vehicle: other) 100 % of control. The T/C (endpoint: median survival time, dose: 39.0 mg/kg/injection, schedule: Q01DX009 (ip), vehicle: other) was 100 % of control; the T/C (endpoint: median survival time, dose: 108.0 mg/kg/injection, schedule: Q01DX009 (ip), vehicle: other) was 100 % of control; the T/C (endpoint: median survival time, dose: 180.0 mg/kg/injection, schedule: Q01DX009 (ip), vehicle: other) is 110 % of control; the T/C (endpoint: median survival time, dose: 300.0 mg/kg/injection, schedule: Q01DX009 (ip), vehicle: other) is 100 % of control.

Regarding `CSc1ccc(NC(=O)Nc2cc(Cl)c(Cl)cc2C)cc1`, the T/C (endpoint: mean survival time, dose: 50.0 mg/kg/injection, schedule: Q01DX009 (ip), vehicle: Klucel (hydroxypropylcellulose) (HPC)) is 87 % of control; the T/C under setting [13] is 87 % of control; the T/C under setting [14] is 86 % of control and 92 % of control; the T/C under setting [15] was 86 % of control.

For the compound `CCC(=O)OCC1OC(n2cnc3c(=S)nc(N)[nH]c32)C(OC(=O)CC)C1OC(=O)CC` (stereo unspecified), the T/C is 106 % of control (endpoint: mean survival time, dose: 0.8 mg/kg/injection, schedule: Q01DX Z (ip), vehicle: carboxymethylcellulose (CMC)); 110 % of control (endpoint: mean survival time, dose: 1.3 mg/kg/injection, schedule: Q01DX Z (ip), vehicle: carboxymethylcellulose (CMC)); 120 % of control (endpoint: mean survival time, dose: 2.0 mg/kg/injection, schedule: Q01DX Z (ip), vehicle: carboxymethylcellulose (CMC)); 169 % of control (endpoint: mean survival time, dose: 8.0 mg/kg/injection, schedule: Q01DX Z (ip), vehicle: carboxymethylcellulose (CMC)); 151 % of control and 154 % of control (endpoint: mean survival time, dose: 12.0 mg/kg/injection, schedule: Q01DX Z (ip), vehicle: carboxymethylcellulose (CMC)); 101 % of control (endpoint: mean survival time, dose: 18.0 mg/kg/injection, schedule: Q01DX Z (ip), vehicle: carboxymethylcellulose (CMC)). Further, the T/C by setting is: (endpoint: mean survival time, dose: 27.0 mg/kg/injection, schedule: Q01DX Z (ip), vehicle: carboxymethylcellulose (CMC)) 156 % of control; (endpoint: mean survival time, dose: 40.0 mg/kg/injection, schedule: Q01DX Z (ip), vehicle: carboxymethylcellulose (CMC)) 151 % of control.

Turning to `COC(=O)CC(C)C(C)(C)[N+](=O)[O-]` (stereo unspecified), the T/C reads like this: under setting [9], 92 % of control; under setting [5], 92 % of control; under setting [6], 92 % of control.

With `CCN(CC)C(=O)Oc1cccc(NC(=O)OC)c1`, the T/C under setting [2] is 94 % of control, the T/C under setting [3] is 94 % of control and the T/C under setting [4] is 100 % of control.

Turning to `Clc1nnc(Nc2ccccc2)c2ccccc12`, the T/C runs as follows: under setting [13], 96 % of control; under setting [14], 93 % of control; (endpoint: mean survival time, dose: 200.0 mg/kg/injection, schedule: Q04DX003 (ip), vehicle: saline) 93 % of control; (endpoint: mean survival time, dose: 400.0 mg/kg/injection, schedule: Q04DX003 (ip), vehicle: saline) 91 % of control.

As for `CN1CCC2(CC1)C(=O)N(CC1COc3ccccc3O1)C(=O)C2c1ccccc1` (stereo unspecified), under setting [1], the T/C was 99 % of control.
